# Source: patent US20050032822A1, “Dithiocarbamate derivatives and their use as antibacterial agents” (priority 2001, published 2005)
# System: M. tuberculosis H37Rv and two drug-resistant clinical isolates
# Test: MIC and MBC against M. tuberculosis in liquid Shkolnikova medium / Lowenstein-Jensen medium
# Type: cell-based, Mycobacterium tuberculosis
# Conditions: for MIC (minimal inhibitory concentration) against Mycobacterium tuberculosis: mean values of the three strains (H37Rv and two drug-resistant clinical isolates), 14 days at 37° C.; for MBC (minimal bactericidal concentration) against Mycobacterium tuberculosis: mean values of the three strains, read after 21-28 days on solid drug free Lowenstein-Jensen medium
compound,measurement,value
4-isopropylamino-6-diethyldithiocarbamoyl-5-nitropyrimidine [Subst. Nr. 1],MIC (minimal inhibitory concentration) against Mycobacterium tuberculosis,31.3 µg/mL
same,MBC (minimal bactericidal concentration) against Mycobacterium tuberculosis,100.0 µg/mL
"CCN(CC)C(=S)Sc1ncnc(NC2CC2)c1[N+](=O)[O-] [Subst. Nr. 2, 4-cyclopropylamino-6-diethyldithiocarbamoyl-5-nitropyrimidine]",MIC (minimal inhibitory concentration) against Mycobacterium tuberculosis,20.8 µg/mL
same,MBC (minimal bactericidal concentration) against Mycobacterium tuberculosis,29.1 µg/mL
"CCN(CC)C(=S)Sc1c(C#N)cc([N+](=O)[O-])cc1[N+](=O)[O-] [Subst. Nr. 3, 3,5-dinitro-2-diethyldithiocarbamoylbenzonitril]",MIC (minimal inhibitory concentration) against Mycobacterium tuberculosis,5.37 µg/mL
same,MBC (minimal bactericidal concentration) against Mycobacterium tuberculosis,7.29 µg/mL
"CCN(CC)C(=S)Sc1ncnc(NC)c1[N+](=O)[O-] [Subst. Nr. 4, 4-methylamino-6-diethyldithiocarbamoyl-5-nitropyrimidine]",MIC (minimal inhibitory concentration) against Mycobacterium tuberculosis,6.25 µg/mL
same,MBC (minimal bactericidal concentration) against Mycobacterium tuberculosis,12.5 µg/mL
"CCN(CC)C(=S)Sc1ncnc(N(C)O)c1[N+](=O)[O-] [Subst. Nr. 5, 4-methylhydroxyamino-6-diethyldithiocarbamoyl-5-nitropyrimidine]",MIC (minimal inhibitory concentration) against Mycobacterium tuberculosis,9.38 µg/mL
same,MBC (minimal bactericidal concentration) against Mycobacterium tuberculosis,12.5 µg/mL
"CCOc1nc(C)nc(SC(=S)N(CC)CC)c1[N+](=O)[O-] [Subst. Nr. 6, 4-ethoxy-2-methyl-6-diethyldithiocarbamoyl-5-nitropyrimidine]",MIC (minimal inhibitory concentration) against Mycobacterium tuberculosis,20.8 µg/mL
same,MBC (minimal bactericidal concentration) against Mycobacterium tuberculosis,41.7 µg/mL
"CNc1ncnc(SC(=S)N(C)C)c1[N+](=O)[O-] [Subst. Nr. 7, 4-methylamino-6-dimethyldithiocarbamoyl-5-nitropyrimidine]",MIC (minimal inhibitory concentration) against Mycobacterium tuberculosis,7.78 µg/mL
same,MBC (minimal bactericidal concentration) against Mycobacterium tuberculosis,10.42 µg/mL
"CN(C)C(=S)Sc1ncnc(N(C)C)c1[N+](=O)[O-] [Subst. Nr. 8, 4-dimethylamino-6-dimethyldithiocarbamoyl-5-nitropyrimidine]",MIC (minimal inhibitory concentration) against Mycobacterium tuberculosis,7.81 µg/mL
same,MBC (minimal bactericidal concentration) against Mycobacterium tuberculosis,12.5 µg/mL
"CN(C)C(=S)Sc1c(C#N)cc([N+](=O)[O-])cc1[N+](=O)[O-] [Subst. Nr. 9, 3,5-dinitro-2-dimethyldithiocarbamoylbenzonitrile]",MIC (minimal inhibitory concentration) against Mycobacterium tuberculosis,4.78 µg/mL
same,MBC (minimal bactericidal concentration) against Mycobacterium tuberculosis,6.25 µg/mL
"CCOc1nc(C)nc(SC(=S)N2CCCC2)c1[N+](=O)[O-] [Subst. Nr. 10, 4-ethoxy-2-methyl-6-tetramethylenedithiocarbamoyl-5-nitropyrimidine]",MIC (minimal inhibitory concentration) against Mycobacterium tuberculosis,5.21 µg/mL
same,MBC (minimal bactericidal concentration) against Mycobacterium tuberculosis,8.33 µg/mL
"CCCOc1ncnc(SC(=S)N(C)C)c1[N+](=O)[O-] [Subst. Nr. 11, 4-propoxy-6-dimethyldithiocarbamoyl-5-nitropyrimidine]",MIC (minimal inhibitory concentration) against Mycobacterium tuberculosis,9.37 µg/mL
same,MBC (minimal bactericidal concentration) against Mycobacterium tuberculosis,12.5 µg/mL
"CNc1ncnc(SC(=S)N2CCCC2)c1[N+](=O)[O-] [Subst. Nr. 12, 4-methylamino-6-tetramethylenedithiocarbamoyl-5-nitropyrimidine]",MIC (minimal inhibitory concentration) against Mycobacterium tuberculosis,3.64 µg/mL
same,MBC (minimal bactericidal concentration) against Mycobacterium tuberculosis,8.33 µg/mL
"CN(C)c1ncnc(SC(=S)N2CCCC2)c1[N+](=O)[O-] [Subst. Nr. 13, 4-dimethylamino-6-tetramethylenedithiocarbamoyl-5-nitropyrimidine]",MIC (minimal inhibitory concentration) against Mycobacterium tuberculosis,3.12 µg/mL
same,MBC (minimal bactericidal concentration) against Mycobacterium tuberculosis,6.25 µg/mL
